# Like-named read-outs stand apart in the source and are kept apart here.
# Test system: respiratory epithelial cells
substance,measurement,setting,value
"IL-13: human IL-13 (Peprotech, Inc.) added to the medium at 50 ng/mL to stimulate respiratory epithelial cells","pendrin gene expression level, factor of increase in response to IL-13 stimulation","AI method, day 3 and day 7, both Lots 1 and 2",ten or more
same,AKR1C1 (32805_at) expression change upon IL-13 stimulation,"HG-U95A, lot 1, Day 3, AI",−2.7
same,ALDH3B2 (37956_at) expression change upon IL-13 stimulation,"HG-U95A, lot 1, Day 3, AI",−7.4
same,AP1G1 (35275_at) expression change upon IL-13 stimulation,"HG-U95A, lot 1, Day 3, AI",−3.6
same,CA12 (36454_at) expression change upon IL-13 stimulation,"HG-U95A, lot 1, Day 3, AI",−4
same,CHL1 (34193_at) expression change upon IL-13 stimulation,"HG-U95A, lot 1, Day 3, AI",−2.5
same,CMAH (39317_at) expression change upon IL-13 stimulation,"HG-U95A, lot 1, Day 3, AI",−2.2
same,E48 (36284_at) expression change upon IL-13 stimulation,"HG-U95A, lot 1, Day 3, AI",−10.3
same,EPHX1 (38790_at) expression change upon IL-13 stimulation,"HG-U95A, lot 1, Day 3, AI",−3
same,FMO2.3 (34935_at) expression change upon IL-13 stimulation,"HG-U95A, lot 1, Day 3, AI",−2.2
same,GLUL (40522_at) expression change upon IL-13 stimulation,"HG-U95A, lot 1, Day 3, AI",−3.8
same,GSTA4 (40508_at) expression change upon IL-13 stimulation,"HG-U95A, lot 1, Day 3, AI",−8
same,"HGNC, keratinocyte transglutaminase gene (35947_at) expression change upon IL-13 stimulation","HG-U95A, lot 1, Day 3, AI",−2
same,KIAA0843 (39597_at) expression change upon IL-13 stimulation,"HG-U95A, lot 1, Day 3, AI",−2.2
same,LGALS1 (33412_at) expression change upon IL-13 stimulation,"HG-U95A, lot 1, Day 3, AI",−2
same,PYGL (37215_at) expression change upon IL-13 stimulation,"HG-U95A, lot 1, Day 3, AI",−2.2
same,SCYD1 (823_at) expression change upon IL-13 stimulation,"HG-U95A, lot 1, Day 3, AI",−2.2
same,SDC1 (38127_at) expression change upon IL-13 stimulation,"HG-U95A, lot 1, Day 3, AI",−2.2
same,TGFBI (1385_at) expression change upon IL-13 stimulation,"HG-U95A, lot 1, Day 3, AI",−3.8
same,ADH1A (34637_f_at) expression change upon IL-13 stimulation,"HG-U95A, lot 1, Day 3, IMM",−3
same,AP1G1 (35275_at) expression change upon IL-13 stimulation,"HG-U95A, lot 1, Day 3, IMM",−2.8
same,CA12 (36454_at) expression change upon IL-13 stimulation,"HG-U95A, lot 1, Day 3, IMM",−3.5
same,CLDN10 (39579_at) expression change upon IL-13 stimulation,"HG-U95A, lot 1, Day 3, IMM",−2.3
same,GLUL (40522_at) expression change upon IL-13 stimulation,"HG-U95A, lot 1, Day 3, IMM",−2.9
same,GPX3 (770_at) expression change upon IL-13 stimulation,"HG-U95A, lot 1, Day 3, IMM",−3.2
same,KIAA0843 (39597_at) expression change upon IL-13 stimulation,"HG-U95A, lot 1, Day 3, IMM",−2.3
same,TGFBI (1385_at) expression change upon IL-13 stimulation,"HG-U95A, lot 1, Day 3, IMM",−2.2
same,ADH1A (34637_f_at) expression change upon IL-13 stimulation,"HG-U95A, lot 1, Day 7, AI",−6.1
same,ADH1C (36247_f_at) expression change upon IL-13 stimulation,"HG-U95A, lot 1, Day 7, AI",−4.1
same,AKR1C1 (32805_at) expression change upon IL-13 stimulation,"HG-U95A, lot 1, Day 7, AI",−3.2
same,ALDH3B2 (37956_at) expression change upon IL-13 stimulation,"HG-U95A, lot 1, Day 7, AI",−6.8
same,AP1G1 (35275_at) expression change upon IL-13 stimulation,"HG-U95A, lot 1, Day 7, AI",−3.9
same,ATP10B (37415_at) expression change upon IL-13 stimulation,"HG-U95A, lot 1, Day 7, AI",−3.2
same,BLMH (37700_at) expression change upon IL-13 stimulation,"HG-U95A, lot 1, Day 7, AI",−2.1
same,CA12 (36454_at) expression change upon IL-13 stimulation,"HG-U95A, lot 1, Day 7, AI",−6.3
same,CLDN10 (39579_at) expression change upon IL-13 stimulation,"HG-U95A, lot 1, Day 7, AI",−4.6
same,CMAH (39317_at) expression change upon IL-13 stimulation,"HG-U95A, lot 1, Day 7, AI",−4.4
same,CP (39008_at) expression change upon IL-13 stimulation,"HG-U95A, lot 1, Day 7, AI",−3.6
same,CRYM (38285_at) expression change upon IL-13 stimulation,"HG-U95A, lot 1, Day 7, AI",−4.2
same,CSPG2 (38112_g_at) expression change upon IL-13 stimulation,"HG-U95A, lot 1, Day 7, AI",−2.1
same,DHCR24 (36658_at) expression change upon IL-13 stimulation,"HG-U95A, lot 1, Day 7, AI",−2.3
same,DSG3 (33693_at) expression change upon IL-13 stimulation,"HG-U95A, lot 1, Day 7, AI",−3.6
same,E48 (36284_at) expression change upon IL-13 stimulation,"HG-U95A, lot 1, Day 7, AI",−7.2
same,EPHX1 (38790_at) expression change upon IL-13 stimulation,"HG-U95A, lot 1, Day 7, AI",−3
same,FACL2 (40082_at) expression change upon IL-13 stimulation,"HG-U95A, lot 1, Day 7, AI",−2.7
same,FMO3 (40665_at) expression change upon IL-13 stimulation,"HG-U95A, lot 1, Day 7, AI",−2.1
same,GLUL (40522_at) expression change upon IL-13 stimulation,"HG-U95A, lot 1, Day 7, AI",−3
same,GPX3 (770_at) expression change upon IL-13 stimulation,"HG-U95A, lot 1, Day 7, AI",−6.5
same,GSTA4 (40508_at) expression change upon IL-13 stimulation,"HG-U95A, lot 1, Day 7, AI",−3.8
same,"HGNC, keratinocyte transglutaminase gene (35947_at) expression change upon IL-13 stimulation","HG-U95A, lot 1, Day 7, AI",−3.2
same,KIAA0843 (39597_at) expression change upon IL-13 stimulation,"HG-U95A, lot 1, Day 7, AI",−2.6
same,KIAA0878 (32215_1_at) expression change upon IL-13 stimulation,"HG-U95A, lot 1, Day 7, AI",−3.4
same,KIAA1055 (39400_at) expression change upon IL-13 stimulation,"HG-U95A, lot 1, Day 7, AI",−5.3
same,LCE (40943_at) expression change upon IL-13 stimulation,"HG-U95A, lot 1, Day 7, AI",−2
same,LGALS1 (33412_at) expression change upon IL-13 stimulation,"HG-U95A, lot 1, Day 7, AI",−6.8
same,PYGL (37215_at) expression change upon IL-13 stimulation,"HG-U95A, lot 1, Day 7, AI",−3.2
same,SCYD1 (823_at) expression change upon IL-13 stimulation,"HG-U95A, lot 1, Day 7, AI",−8.5
same,TGFBI (1385_at) expression change upon IL-13 stimulation,"HG-U95A, lot 1, Day 7, AI",−5.3
same,TNFAIP2 (38631_at) expression change upon IL-13 stimulation,"HG-U95A, lot 1, Day 7, AI",−4.4
same,AKR1C1 (32805_at) expression change upon IL-13 stimulation,"HG-U95A, lot 1, Day 7, IMM",−3.1
same,AP1G1 (35275_at) expression change upon IL-13 stimulation,"HG-U95A, lot 1, Day 7, IMM",−3.7
same,CA12 (36454_at) expression change upon IL-13 stimulation,"HG-U95A, lot 1, Day 7, IMM",−4
same,CHL1 (34193_at) expression change upon IL-13 stimulation,"HG-U95A, lot 1, Day 7, IMM",2.1
same,CP (39008_at) expression change upon IL-13 stimulation,"HG-U95A, lot 1, Day 7, IMM",−2.6
same,FMO2.3 (34935_at) expression change upon IL-13 stimulation,"HG-U95A, lot 1, Day 7, IMM",−2.4
same,GPX3 (770_at) expression change upon IL-13 stimulation,"HG-U95A, lot 1, Day 7, IMM",−6
same,"HGNC, keratinocyte transglutaminase gene (35947_at) expression change upon IL-13 stimulation","HG-U95A, lot 1, Day 7, IMM",−3.7
same,KIAA0878 (32215_1_at) expression change upon IL-13 stimulation,"HG-U95A, lot 1, Day 7, IMM",−2.3
same,PYGL (37215_at) expression change upon IL-13 stimulation,"HG-U95A, lot 1, Day 7, IMM",−2.7
same,TGFBI (1385_at) expression change upon IL-13 stimulation,"HG-U95A, lot 1, Day 7, IMM",−3
same,ADH1C (36247_f_at) expression change upon IL-13 stimulation,"HG-U95A, lot 2, Day 3, AI",−6.1
same,AKR1C1 (32805_at) expression change upon IL-13 stimulation,"HG-U95A, lot 2, Day 3, AI",−2.4
same,ALDH3B2 (37956_at) expression change upon IL-13 stimulation,"HG-U95A, lot 2, Day 3, AI",−6.9
same,AP1G1 (35275_at) expression change upon IL-13 stimulation,"HG-U95A, lot 2, Day 3, AI",−2.8
same,CA12 (36454_at) expression change upon IL-13 stimulation,"HG-U95A, lot 2, Day 3, AI",−6.5
same,CHL1 (34193_at) expression change upon IL-13 stimulation,"HG-U95A, lot 2, Day 3, AI",−4.3
same,CLDN10 (39579_at) expression change upon IL-13 stimulation,"HG-U95A, lot 2, Day 3, AI",−5.4
same,CMAH (39317_at) expression change upon IL-13 stimulation,"HG-U95A, lot 2, Day 3, AI",−7.4
same,CP (39008_at) expression change upon IL-13 stimulation,"HG-U95A, lot 2, Day 3, AI",−3.9
same,DHCR24 (36658_at) expression change upon IL-13 stimulation,"HG-U95A, lot 2, Day 3, AI",−2.1
same,E48 (36284_at) expression change upon IL-13 stimulation,"HG-U95A, lot 2, Day 3, AI",−3.8
same,EPHX1 (38790_at) expression change upon IL-13 stimulation,"HG-U95A, lot 2, Day 3, AI",−3
same,FMO2.3 (34935_at) expression change upon IL-13 stimulation,"HG-U95A, lot 2, Day 3, AI",−3.7
same,FMO3 (40665_at) expression change upon IL-13 stimulation,"HG-U95A, lot 2, Day 3, AI",−2.3
same,GLUL (40522_at) expression change upon IL-13 stimulation,"HG-U95A, lot 2, Day 3, AI",−3.5
same,GPX3 (770_at) expression change upon IL-13 stimulation,"HG-U95A, lot 2, Day 3, AI",−12.2
same,GSTA4 (40508_at) expression change upon IL-13 stimulation,"HG-U95A, lot 2, Day 3, AI",−2.8
same,"HGNC, keratinocyte transglutaminase gene (35947_at) expression change upon IL-13 stimulation","HG-U95A, lot 2, Day 3, AI",−2.7
same,KIAA0843 (39597_at) expression change upon IL-13 stimulation,"HG-U95A, lot 2, Day 3, AI",−2.1
same,KIAA0878 (32215_1_at) expression change upon IL-13 stimulation,"HG-U95A, lot 2, Day 3, AI",−2.4
same,LGALS1 (33412_at) expression change upon IL-13 stimulation,"HG-U95A, lot 2, Day 3, AI",−2.6
same,PYGL (37215_at) expression change upon IL-13 stimulation,"HG-U95A, lot 2, Day 3, AI",−2.2
same,SCYD1 (823_at) expression change upon IL-13 stimulation,"HG-U95A, lot 2, Day 3, AI",−2.1
same,TGFBI (1385_at) expression change upon IL-13 stimulation,"HG-U95A, lot 2, Day 3, AI",−3.1
same,TNFAIP2 (38631_at) expression change upon IL-13 stimulation,"HG-U95A, lot 2, Day 3, AI",−2.4
same,ADH1A (34637_f_at) expression change upon IL-13 stimulation,"HG-U95A, lot 2, Day 7, AI",−20.5
same,ADH1C (36247_f_at) expression change upon IL-13 stimulation,"HG-U95A, lot 2, Day 7, AI",−14.2
same,ALDH3B2 (37956_at) expression change upon IL-13 stimulation,"HG-U95A, lot 2, Day 7, AI",−27.6
same,AP1G1 (35275_at) expression change upon IL-13 stimulation,"HG-U95A, lot 2, Day 7, AI",−2.6
same,ATP10B (37415_at) expression change upon IL-13 stimulation,"HG-U95A, lot 2, Day 7, AI",−3
same,BLMH (37700_at) expression change upon IL-13 stimulation,"HG-U95A, lot 2, Day 7, AI",−2.5
same,CA12 (36454_at) expression change upon IL-13 stimulation,"HG-U95A, lot 2, Day 7, AI",−3
same,CHL1 (34193_at) expression change upon IL-13 stimulation,"HG-U95A, lot 2, Day 7, AI",−7.3
same,CLDN10 (39579_at) expression change upon IL-13 stimulation,"HG-U95A, lot 2, Day 7, AI",−5.4
same,CMAH (39317_at) expression change upon IL-13 stimulation,"HG-U95A, lot 2, Day 7, AI",−14.4
same,CP (39008_at) expression change upon IL-13 stimulation,"HG-U95A, lot 2, Day 7, AI",−6.2

# Source: patent US20050208496A1, “Methods of testing for bronchial asthma or chronic obstructive pulmonary disease” (Genox Research, Inc., priority 2002, published 2005)
